The source made the active and inactive calls. The calls are words filed in the database; no cut-off is given here.
These compounds were tested against T1, Protein farnesyltransferase (Homo sapiens, UniProt P49354+P49356) (assay: Inhibition of human recombinant FPTase by Ras farnesyl-protein-transferase assay).
Type: protein-complex assay

IC50 [µM]	Compound
40	COc1cc(O)c(Oc2cc(C)cc(O)c2C(=O)O)c(CO)c1 [BARCELONEIC ACID A]

The compounds below were run against T1, Protein farnesyltransferase (assay: Inhibition of human recombinant FPTase up to ~300 uM by Ras farnesyl-protein-transferase assay).
Type: protein-complex assay

Compound	Activity
COC(=O)c1c(OC)cc(C)cc1Oc1c(CO)cc(OC)cc1OC	inactive
Cc1cc(O)c(C(=O)O)c(O)c1	inactive
COc1cc(O)c2c(c1)COC(=O)c1c(O)cc(C)cc1O2	inactive
COc1cc(CO)c(Oc2cc(C)cc(OC)c2C(=O)O)c(OC)c1	inactive

Results, then the compound that gave them:

Activity	Compound
inactive	COc1cc(CO)c(Oc2cc(C)cc(O)c2C(=O)O)c(OC)c1
inactive	COc1cc(O)c(Oc2cc(C)cc(O)c2C(=O)O)c(C(=O)O)c1
